Results as given in US10774068B2, “Composition and methods for inhibiting mammalian sterile 20-like kinase 1” (The Scripps Research Institute, priority 2015, dated 2020).
Like-named read-outs stand apart in the source and are kept apart here.

What was measured:
Beta cell = Beta cell apoptosis with increasing concentrations of neratinib (FIG. 3); format: cell-based
T1D model mice = T1D model mice treated with streptozotocin (STZ); format: in vivo
human islets [1] = assay: Cytokine (IL-1β and IFN-γ) induced apoptotic activity in human islets; format: cell-based; settings: FIG. 9
human islets [2] = assay: High glucose/palmitate induced apoptotic activity in human islets; parameters: MST1 phosphorylation (pMST1): dose or concentration left out as unconfirmed; settings: HG/Pal, FIG. 8
Text: Freshly isolated human islets from a single donor were exposed to high glucose and palmitate (HG/Pal) to induce apoptosis.

MST1 [3] = target: T1, MST1 (Homo sapiens (Human), UniProt Q13043); assay: MST1 kinase activity; format: biochemical
T1 sequence (Q13043 whole entry): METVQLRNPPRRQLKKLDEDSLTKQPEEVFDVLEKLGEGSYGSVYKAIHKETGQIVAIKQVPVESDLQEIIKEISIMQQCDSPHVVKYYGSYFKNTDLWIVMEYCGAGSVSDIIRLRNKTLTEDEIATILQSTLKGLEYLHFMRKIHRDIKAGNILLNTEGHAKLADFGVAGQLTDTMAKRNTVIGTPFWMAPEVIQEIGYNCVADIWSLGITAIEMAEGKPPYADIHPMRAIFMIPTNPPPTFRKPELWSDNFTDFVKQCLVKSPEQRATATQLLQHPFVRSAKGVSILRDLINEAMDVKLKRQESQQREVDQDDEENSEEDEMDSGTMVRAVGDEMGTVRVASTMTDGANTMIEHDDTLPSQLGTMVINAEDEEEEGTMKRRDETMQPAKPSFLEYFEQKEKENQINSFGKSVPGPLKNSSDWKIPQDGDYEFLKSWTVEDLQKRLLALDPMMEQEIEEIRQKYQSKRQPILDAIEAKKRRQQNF

MST1 [4] = target: T1, MST1; assay: MST1 biochemical LanthaScreen Eu Kinase Binding Assay; settings: read-out: Kinase Binding assay-MST1 IC50
Experimental: (§1) MST1 and MST2 biochemical LanthaScreen Eu Kinase Binding Assay was based on the binding and displacement of kinase tracer to the kinase of interest. Compounds in 1000×DMSO stock solution was dispensed using automated dispensing system (Labcyte) to 384 well Corning Microplate at 15 nL, 5 uL of Kinase buffer A was added to each well. Plates were shaken and incubated for 1 min to ensure well dissolution of compounds.

MST2 = MST2 (Homo sapiens (Human), UniProt Q13188); assay: MST2 biochemical LanthaScreen Eu Kinase Binding Assay
Chain of MST2 (Q13188 whole entry): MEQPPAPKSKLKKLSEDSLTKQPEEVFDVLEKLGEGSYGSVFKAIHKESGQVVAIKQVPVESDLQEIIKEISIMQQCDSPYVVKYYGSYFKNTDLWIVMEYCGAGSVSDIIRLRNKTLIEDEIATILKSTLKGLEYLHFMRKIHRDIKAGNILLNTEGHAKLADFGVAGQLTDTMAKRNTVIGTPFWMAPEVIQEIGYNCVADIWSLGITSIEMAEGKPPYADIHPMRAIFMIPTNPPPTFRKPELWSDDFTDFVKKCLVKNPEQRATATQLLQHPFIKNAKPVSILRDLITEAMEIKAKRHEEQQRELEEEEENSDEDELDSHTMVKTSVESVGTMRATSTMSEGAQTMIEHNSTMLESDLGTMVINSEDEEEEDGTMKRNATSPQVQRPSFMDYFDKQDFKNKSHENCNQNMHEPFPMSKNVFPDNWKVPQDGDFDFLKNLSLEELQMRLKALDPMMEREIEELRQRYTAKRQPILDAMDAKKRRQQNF
Experimental: as §1

[5] = read-out: Kinase Binding assay-MST2 IC50

Row | IC50 (MST2; [5]) | SMILES | IC50 (MST1 [4]) | IC50 (MST2) | further results
1 | – | CCOc1cc2ncc(C#N)c(Nc3ccc(OCc4ccccn4)c(Cl)c3)c2cc1NC(=O)/C=C/CN(C)C [neratinib] | – | – | Beta cell apoptosis (Beta cell): decrease; hyperglycemia (T1D model mice; T1D model mice treated with STZ, FIG. 4): attenuated; responses to acute glucose challenge (T1D model mice; T1D model mice, FIG. 5): improved; blood glucose (T1D model mice; T1D model mice, FIG. 6): reduced; serum insulin (T1D model mice; T1D model mice, FIG. 7): increased; Caspase 3 cleavage (human islets [1]; 10 μM neratinib): inhibited; MST1 phosphorylation (human islets [1]; 10 μM neratinib): inhibited; Caspase 3 cleavage (human islets [1]; 25 μM neratinib): inhibited; MST1 phosphorylation (human islets [1]; 25 μM neratinib): inhibited; induction of cleaved caspase 3 (Cl Casp3) (human islets [2]; 25 M neratinib (so in the source)): inhibited; MST1 phosphorylation (pMST1) (human islets [2]): inhibited; MST1 kinase activity (MST1 [3]): inhibitor
2 | – | CCOc1cc2ncc(C#N)c(Nc3ccc(OCc4cccc(C#N)n4)c(Cl)c3)c2cc1NC(=O)CCCN(C)C [Example 5] | < 100 nM | 100 to 1000 nM | –
3 | < 100 nM | CCOc1cc2ncc(C#N)c(Nc3cc(Cl)c(OCc4ncccc4C)cc3Br)c2cc1NC(=O)CCCN(C)C [Example 79] | < 100 nM | – | –
4 | – | CCOc1cc2ncc(C#N)c(Nc3ccc(OCc4ncccc4OC)c(Cl)c3)c2cc1NC(=O)CCCN(C)C [Example 18] | < 100 nM | 100 to 1000 nM | –
5 | – | CCOc1cc2ncc(C#N)c(Nc3ccc(OCc4ccccn4)c(Cl)c3)c2cc1NC(=O)CCCN1CCCCC1 [Example 97] | < 100 nM | 100 to 1000 nM | –
6 | – | CCOc1cc2ncc(C#N)c(Nc3ccc(OCc4ncccc4C)cc3)c2cc1NC(=O)CCCN(C)C [Example 20] | < 100 nM | 100 to 1000 nM | –
7 | < 100 nM | CCOc1cc2ncc(C#N)c(Nc3ccc(OCc4ncccc4C)c(OC)c3)c2cc1NC(=O)/C=C/CN(C)C [Example 92] | < 100 nM | – | –
8 | – | CCOc1cc2ncc(C#N)c(Nc3ccc(OCc4ncccc4C(=O)OC)cc3Cl)c2cc1NC(=O)CCCN(C)C [Example 82] | 100 to 1000 nM | 100 to 1000 nM | –
9 | < 100 nM | CCOc1cc2ncc(C#N)c(Nc3ccc(OCc4nc(Br)ccc4C)cc3Cl)c2cc1NC(=O)CCCN(C)C [Example 77] | < 100 nM | – | –
10 | < 100 nM | CCOc1cc2ncc(C#N)c(Nc3ccc(OCc4ncccc4C)c(Cl)c3)c2cc1NC(=O)/C=C/CN(C)C [Example 90, (E)-N-(4-(3-chloro-4-((3-methylpyridin-2-yl)methoxy)phenylamino)-3-cyano-7-ethoxyquinolin-6-yl)-4-(dimethylamino)but-2-enamide] | < 100 nM | – | –
11 | – | CCOc1cc2ncc(C#N)c(Nc3ccc(OCc4ncccc4C)c(C)c3)c2cc1NC(=O)CCCN(C)C [Example 21] | < 100 nM | 100 to 1000 nM | –
12 | < 100 nM | CCOc1cc2ncc(C#N)c(Nc3ccc(OCc4ncccc4C)cc3C)c2cc1NC(=O)/C=C/CN(C)C [Example 93] | < 100 nM | – | –

Row | SMILES | IC50 (MST2; [5]) | IC50 (MST1 [4]) | IC50 (MST2) | further results
13 | CCOc1cc2ncc(C#N)c(Nc3ccc(OCc4ncccc4Cl)c(Cl)c3)c2cc1NC(=O)CCCN(C)C [Example 35] | < 100 nM | < 100 nM | – | –
14 | CCOc1cc2ncc(C#N)c(Nc3ccc(OCc4cccc(F)n4)c(Cl)c3)c2cc1NC(=O)CCCN(C)C [Example 4] | < 100 nM | < 100 nM | – | –
